Reference: ChEMBL document CHEMBL5346933, “Design and synthesis of novel arylurea derivatives of aryloxy(1-phenylpropyl) alicyclic diamines with antimicrobial activity against multidrug-resistant Gram-positive bacteria” (Eur J Med Chem, 2023)
Values after ≈ are worked out from the molar mass of the structure shown. Active and inactive are the calls of the source. No cut-off for these calls is given here.

tested on: Klebsiella pneumoniae; assay: Antibacterial activity against Klebsiella pneumoniae ATCC 700603 assessed as inhibition of bacterial growth incubated for 18 hrs by broth microdilution method; format: functional

| SMILES | Activity |
| --- | --- |
| O=C(Nc1ccc(F)cc1)NC1CCN(CCC(Oc2ccc(C(F)(F)F)cc2)c2ccccc2)CC1 (racemic) | inactive |
| O=C(Nc1cccc(Cl)c1)NC1CCN(CCC(Oc2ccccc2)c2ccccc2)CC1 (racemic) | inactive |
| O=C(Nc1ccc(Cl)cc1)NC1CCN(CCC(Oc2ccc(C(F)(F)F)cc2)c2ccccc2)CC1 (racemic) | inactive |
| O=C(Nc1cccc(F)c1)NC1CCN(CCC(Oc2ccc(C(F)(F)F)cc2)c2ccccc2)CC1 (configuration not stated) | inactive |

tested on: Staphylococcus aureus; assay: Antibacterial activity against vancomycin-intermediate Staphylococcus aureus ATCC 700699 assessed as inhibition of bacterial growth incubated for 18 hrs by broth microdilution method; format: functional

| SMILES | MIC |
| --- | --- |
| O=C(Nc1ccc(F)cc1)NC1CCN(CCC(Oc2ccc(C(F)(F)F)cc2)c2ccccc2)CC1 (racemic) | 6.25 µg/mL (≈ 12.1 µM) |
| O=C(Nc1cccc(Cl)c1)NC1CCN(CCC(Oc2ccccc2)c2ccccc2)CC1 (racemic) | 12.5 µg/mL (≈ 26.9 µM) |
| O=C(Nc1ccc(Cl)cc1)NC1CCN(CCC(Oc2ccc(C(F)(F)F)cc2)c2ccccc2)CC1 (racemic) | > 12.5 µg/mL |
| O=C(Nc1cccc(F)c1)NC1CCN(CCC(Oc2ccc(C(F)(F)F)cc2)c2ccccc2)CC1 (configuration not stated) | 6.25 µg/mL (≈ 12.1 µM) |

tested on: Staphylococcus aureus; assay: Antibacterial activity against methicillin-resistant Staphylococcus aureus clinical strain 19449 assessed as inhibition of bacterial growth incubated for 18 hrs by broth microdilution method; format: functional

| SMILES | MIC |
| --- | --- |
| O=C(Nc1ccc(F)cc1)NC1CCN(CCC(Oc2ccc(C(F)(F)F)cc2)c2ccccc2)CC1 (racemic) | 3.12 µg/mL (≈ 6.06 µM) |
| O=C(Nc1cccc(Cl)c1)NC1CCN(CCC(Oc2ccccc2)c2ccccc2)CC1 (racemic) | 12.5 µg/mL (≈ 26.9 µM) |
| O=C(Nc1ccc(Cl)cc1)NC1CCN(CCC(Oc2ccc(C(F)(F)F)cc2)c2ccccc2)CC1 (racemic) | 6.25 µg/mL (≈ 11.7 µM) |
| O=C(Nc1cccc(F)c1)NC1CCN(CCC(Oc2ccc(C(F)(F)F)cc2)c2ccccc2)CC1 (configuration not stated) | 3.12 µg/mL (≈ 6.06 µM) |

tested on: Escherichia coli; assay: Antibacterial activity against Escherichia coli ATCC 25922 assessed as inhibition of bacterial growth incubated for 18 hrs by broth microdilution method; format: functional

| SMILES | Activity |
| --- | --- |
| O=C(Nc1ccc(F)cc1)NC1CCN(CCC(Oc2ccc(C(F)(F)F)cc2)c2ccccc2)CC1 (racemic) | inactive |
| O=C(Nc1cccc(Cl)c1)NC1CCN(CCC(Oc2ccccc2)c2ccccc2)CC1 (racemic) | inactive |
| O=C(Nc1ccc(Cl)cc1)NC1CCN(CCC(Oc2ccc(C(F)(F)F)cc2)c2ccccc2)CC1 (racemic) | inactive |
| O=C(Nc1cccc(F)c1)NC1CCN(CCC(Oc2ccc(C(F)(F)F)cc2)c2ccccc2)CC1 (configuration not stated) | inactive |

tested on: Staphylococcus epidermidis; assay: Antibacterial activity against methicillin-susceptible Staphylococcus epidermidis ATCC 12228 assessed as inhibition of bacterial growth incubated for 18 hrs by broth microdilution method; format: functional

| SMILES | MIC |
| --- | --- |
| O=C(O)c1cn(C2CC2)c2cc(N3CCNCC3)c(F)cc2c1=O [CIPROFLOXACIN] | 0.78 µg/mL (≈ 2.35 µM) |
| O=C(Nc1ccc(F)cc1)NC1CCN(CCC(Oc2ccc(C(F)(F)F)cc2)c2ccccc2)CC1 (racemic) | 6.25 µg/mL (≈ 12.1 µM) |
| O=C(Nc1cccc(Cl)c1)NC1CCN(CCC(Oc2ccccc2)c2ccccc2)CC1 (racemic) | 6.25 µg/mL (≈ 13.5 µM) |
| O=C(Nc1ccc(Cl)cc1)NC1CCN(CCC(Oc2ccc(C(F)(F)F)cc2)c2ccccc2)CC1 (racemic) | > 12.5 µg/mL |
| O=C(Nc1cccc(F)c1)NC1CCN(CCC(Oc2ccc(C(F)(F)F)cc2)c2ccccc2)CC1 (configuration not stated) | 3.12 µg/mL (≈ 6.06 µM) |

tested on: Pseudomonas aeruginosa; assay: Antibacterial activity against Pseudomonas aeruginosa ATCC 27853 assessed as inhibition of bacterial growth incubated for 18 hrs by broth microdilution method; format: functional

| SMILES | Activity |
| --- | --- |
| O=C(Nc1ccc(F)cc1)NC1CCN(CCC(Oc2ccc(C(F)(F)F)cc2)c2ccccc2)CC1 (racemic) | inactive |
| O=C(Nc1cccc(Cl)c1)NC1CCN(CCC(Oc2ccccc2)c2ccccc2)CC1 (racemic) | inactive |
| O=C(Nc1ccc(Cl)cc1)NC1CCN(CCC(Oc2ccc(C(F)(F)F)cc2)c2ccccc2)CC1 (racemic) | inactive |
| O=C(Nc1cccc(F)c1)NC1CCN(CCC(Oc2ccc(C(F)(F)F)cc2)c2ccccc2)CC1 (configuration not stated) | inactive |

tested on: Staphylococcus aureus; assay: Antibacterial activity against biofilm producer Staphylococcus aureus RN450 assessed as inhibition of bacterial growth incubated for 18 hrs by broth microdilution method; format: functional

| SMILES | MIC |
| --- | --- |
| O=C(O)c1cn(C2CC2)c2cc(N3CCNCC3)c(F)cc2c1=O [CIPROFLOXACIN] | 0.78 µg/mL (≈ 2.35 µM) |
| O=C(Nc1ccc(F)cc1)NC1CCN(CCC(Oc2ccc(C(F)(F)F)cc2)c2ccccc2)CC1 (racemic) | 3.12 µg/mL (≈ 6.06 µM) |
| O=C(Nc1cccc(Cl)c1)NC1CCN(CCC(Oc2ccccc2)c2ccccc2)CC1 (racemic) | 1.56 µg/mL (≈ 3.36 µM) |
| O=C(Nc1ccc(Cl)cc1)NC1CCN(CCC(Oc2ccc(C(F)(F)F)cc2)c2ccccc2)CC1 (racemic) | 1.56 µg/mL (≈ 2.93 µM) |
| O=C(Nc1cccc(F)c1)NC1CCN(CCC(Oc2ccc(C(F)(F)F)cc2)c2ccccc2)CC1 (configuration not stated) | 1.56 µg/mL (≈ 3.03 µM) |

tested on: not listed separately; assay: Cytotoxicity against human MRC5 cells assessed as reduction in cell viability incubated for 24 hrs by MTT assay; format: toxicity, cell-based

| SMILES | IC50 at 24 h |
| --- | --- |
| COc1cccc2c1C(=O)c1c(O)c3c(c(O)c1C2=O)C[C@@](O)(C(=O)CO)C[C@@H]3O[C@H]1C[C@H](N)[C@H](O)[C@H](C)O1 [DOXORUBICIN] | 0.39 µg/mL (≈ 0.718 µM) |

tested on: Staphylococcus epidermidis; assay: Antibacterial activity against linezolid-resistant Staphylococcus epidermidis NIL 4399/19 assessed as inhibition of bacterial growth incubated for 18 hrs by broth microdilution method; format: functional

| SMILES | MIC |
| --- | --- |
| O=C(O)c1cn(C2CC2)c2cc(N3CCNCC3)c(F)cc2c1=O [CIPROFLOXACIN] | > 12.5 µg/mL |
| O=C(Nc1ccc(F)cc1)NC1CCN(CCC(Oc2ccc(C(F)(F)F)cc2)c2ccccc2)CC1 (racemic) | 3.12 µg/mL (≈ 6.06 µM) |
| O=C(Nc1cccc(Cl)c1)NC1CCN(CCC(Oc2ccccc2)c2ccccc2)CC1 (racemic) | 6.25 µg/mL (≈ 13.5 µM) |
| O=C(Nc1ccc(Cl)cc1)NC1CCN(CCC(Oc2ccc(C(F)(F)F)cc2)c2ccccc2)CC1 (racemic) | > 12.5 µg/mL |
| O=C(Nc1cccc(F)c1)NC1CCN(CCC(Oc2ccc(C(F)(F)F)cc2)c2ccccc2)CC1 (configuration not stated) | 3.12 µg/mL (≈ 6.06 µM) |

tested on: Enterococcus faecalis; assay: Antibacterial activity against Enterococcus faecalis ATCC 29212 assessed as inhibition of bacterial growth incubated for 18 hrs by broth microdilution method; format: functional

| SMILES | MIC |
| --- | --- |
| O=C(O)c1cn(C2CC2)c2cc(N3CCNCC3)c(F)cc2c1=O [CIPROFLOXACIN] | 0.78 µg/mL (≈ 2.35 µM) |
| O=C(Nc1ccc(F)cc1)NC1CCN(CCC(Oc2ccc(C(F)(F)F)cc2)c2ccccc2)CC1 (racemic) | 6.25 µg/mL (≈ 12.1 µM) |
| O=C(Nc1cccc(F)c1)NC1CCN(CCC(Oc2ccc(C(F)(F)F)cc2)c2ccccc2)CC1 (configuration not stated) | 3.12 µg/mL (≈ 6.06 µM) |

tested on: Staphylococcus epidermidis; assay: Antibacterial activity against biofilm producer Staphylococcus epidermidis ATCC 35984 assessed as inhibition of bacterial growth incubated for 18 hrs by broth microdilution method; format: functional

| SMILES | MIC |
| --- | --- |
| O=C(O)c1cn(C2CC2)c2cc(N3CCNCC3)c(F)cc2c1=O [CIPROFLOXACIN] | 0.78 µg/mL (≈ 2.35 µM) |
| O=C(Nc1ccc(F)cc1)NC1CCN(CCC(Oc2ccc(C(F)(F)F)cc2)c2ccccc2)CC1 (racemic) | 3.12 µg/mL (≈ 6.06 µM) |
| O=C(Nc1cccc(Cl)c1)NC1CCN(CCC(Oc2ccccc2)c2ccccc2)CC1 (racemic) | 3.12 µg/mL (≈ 6.73 µM) |
| O=C(Nc1ccc(Cl)cc1)NC1CCN(CCC(Oc2ccc(C(F)(F)F)cc2)c2ccccc2)CC1 (racemic) | 3.12 µg/mL (≈ 5.87 µM) |
| O=C(Nc1cccc(F)c1)NC1CCN(CCC(Oc2ccc(C(F)(F)F)cc2)c2ccccc2)CC1 (configuration not stated) | 3.12 µg/mL (≈ 6.06 µM) |

tested on: Staphylococcus aureus; assay: Antibacterial activity against methicillin-susceptible Staphylococcus aureus ATCC 25923 assessed as inhibition of bacterial growth incubated for 18 hrs by broth microdilution method; format: functional

| SMILES | MIC |
| --- | --- |
| O=C(O)c1cn(C2CC2)c2cc(N3CCNCC3)c(F)cc2c1=O [CIPROFLOXACIN] | 0.78 µg/mL (≈ 2.35 µM) |
| O=C(Nc1ccc(F)cc1)NC1CCN(CCC(Oc2ccc(C(F)(F)F)cc2)c2ccccc2)CC1 (racemic) | 6.25 µg/mL (≈ 12.1 µM) |
| O=C(Nc1cccc(Cl)c1)NC1CCN(CCC(Oc2ccccc2)c2ccccc2)CC1 (racemic) | 6.25 µg/mL (≈ 13.5 µM) |
| O=C(Nc1ccc(Cl)cc1)NC1CCN(CCC(Oc2ccc(C(F)(F)F)cc2)c2ccccc2)CC1 (racemic) | > 12.5 µg/mL |
| O=C(Nc1cccc(F)c1)NC1CCN(CCC(Oc2ccc(C(F)(F)F)cc2)c2ccccc2)CC1 (configuration not stated) | 6.25 µg/mL (≈ 12.1 µM) |

tested on: not listed separately; assay: Cytotoxicity against human BJ cells assessed as reduction in cell viability incubated for 24 hrs by MTT assay; format: toxicity, cell-based

| SMILES | IC50 at 24 h |
| --- | --- |
| COc1cccc2c1C(=O)c1c(O)c3c(c(O)c1C2=O)C[C@@](O)(C(=O)CO)C[C@@H]3O[C@H]1C[C@H](N)[C@H](O)[C@H](C)O1 [DOXORUBICIN] | 0.78 µg/mL (≈ 1.44 µM) |

tested on: Enterococcus faecium; assay: Antibacterial activity against vancomycin-resistant Enterococcus faecium assessed as inhibition of bacterial growth incubated for 18 hrs by broth microdilution method; format: functional

| SMILES | MIC |
| --- | --- |
| O=C(O)c1cn(C2CC2)c2cc(N3CCNCC3)c(F)cc2c1=O [CIPROFLOXACIN] | 0.78 µg/mL (≈ 2.35 µM) |
| O=C(Nc1ccc(F)cc1)NC1CCN(CCC(Oc2ccc(C(F)(F)F)cc2)c2ccccc2)CC1 (racemic) | 3.12 µg/mL (≈ 6.06 µM) |
| O=C(Nc1cccc(F)c1)NC1CCN(CCC(Oc2ccc(C(F)(F)F)cc2)c2ccccc2)CC1 (configuration not stated) | 0.78 µg/mL (≈ 1.51 µM) |

tested on: Streptococcus pneumoniae; assay: Antibacterial activity against Streptococcus pneumoniae ATCC 49619 assessed as inhibition of bacterial growth incubated for 18 hrs by broth microdilution method; format: functional

| SMILES | MIC |
| --- | --- |
| O=C(Nc1ccc(F)cc1)NC1CCN(CCC(Oc2ccc(C(F)(F)F)cc2)c2ccccc2)CC1 (racemic) | > 12.5 µg/mL |
| O=C(Nc1cccc(Cl)c1)NC1CCN(CCC(Oc2ccccc2)c2ccccc2)CC1 (racemic) | 12.5 µg/mL (≈ 26.9 µM) |
| O=C(Nc1ccc(Cl)cc1)NC1CCN(CCC(Oc2ccc(C(F)(F)F)cc2)c2ccccc2)CC1 (racemic) | 6.25 µg/mL (≈ 11.7 µM) |
| O=C(Nc1cccc(F)c1)NC1CCN(CCC(Oc2ccc(C(F)(F)F)cc2)c2ccccc2)CC1 (configuration not stated) | 6.25 µg/mL (≈ 12.1 µM) |
